Laboratory results as given in patent US20120071475A1, “UREA DERIVATIVES HAVING PI3K-INHIBITING ACTIVITY” (SHIONOGI & CO., LTD., priority 2009, published 2012).
Blank lines part the entries; values can stand above or below the compound they belong to.

How the values were obtained:
PI3Kγ [1] = target: T1, PI3Kγ (Homo sapiens, UniProt P48736); assay: PI3Kγ inhibitory activity (PI3-kinase HTRF assay, inhibition ratio); type: biochemical; conditions: 0.5 h, compound at 10 μmol/L; read-out: PI3Kg Inhibition Ratio % (10 μM)
T1 sequence (P48736 whole entry, species assumed): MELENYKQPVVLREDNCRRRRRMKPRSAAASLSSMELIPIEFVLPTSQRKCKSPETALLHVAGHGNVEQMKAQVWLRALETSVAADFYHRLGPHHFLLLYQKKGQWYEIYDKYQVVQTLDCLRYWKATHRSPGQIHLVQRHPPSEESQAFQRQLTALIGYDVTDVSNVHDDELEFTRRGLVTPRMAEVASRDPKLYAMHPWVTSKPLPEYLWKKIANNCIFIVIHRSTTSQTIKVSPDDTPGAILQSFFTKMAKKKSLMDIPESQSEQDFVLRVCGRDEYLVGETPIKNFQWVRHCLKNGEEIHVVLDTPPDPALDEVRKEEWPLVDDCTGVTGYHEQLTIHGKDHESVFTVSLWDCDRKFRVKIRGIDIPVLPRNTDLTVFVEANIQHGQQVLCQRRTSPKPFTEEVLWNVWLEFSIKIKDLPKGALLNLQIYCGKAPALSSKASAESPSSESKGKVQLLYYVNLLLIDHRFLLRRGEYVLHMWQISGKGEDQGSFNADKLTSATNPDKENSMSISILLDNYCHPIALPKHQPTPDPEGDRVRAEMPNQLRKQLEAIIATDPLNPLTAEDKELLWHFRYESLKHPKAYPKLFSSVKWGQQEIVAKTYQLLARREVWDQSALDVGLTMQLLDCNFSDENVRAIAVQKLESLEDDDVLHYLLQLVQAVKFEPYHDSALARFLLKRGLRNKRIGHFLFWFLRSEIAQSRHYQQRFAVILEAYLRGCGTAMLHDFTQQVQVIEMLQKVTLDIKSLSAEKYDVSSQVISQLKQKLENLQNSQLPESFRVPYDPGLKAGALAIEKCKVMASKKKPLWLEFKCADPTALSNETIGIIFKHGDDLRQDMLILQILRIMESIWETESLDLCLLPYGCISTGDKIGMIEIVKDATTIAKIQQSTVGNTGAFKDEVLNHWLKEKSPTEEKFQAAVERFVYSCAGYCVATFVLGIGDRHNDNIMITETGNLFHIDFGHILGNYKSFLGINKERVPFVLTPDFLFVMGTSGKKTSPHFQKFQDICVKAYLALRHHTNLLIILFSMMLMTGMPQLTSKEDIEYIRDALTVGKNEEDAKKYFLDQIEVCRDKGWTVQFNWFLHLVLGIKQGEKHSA
Outline: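 Compound at 10 μmol/L preincubated 10 min with PI3Kγ and PIP2 substrate, then reacted with ATP for 30 minutes at room temperature; the compound, substrate and ATP figures as printed (40 μmol/L each) are solution concentrations. HTRF 665/620 nm ratio read after 18 hours. Inhibition ratio calculated against no-compound (100%) and no-enzyme (0%) controls.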

AKT phosphorylation = AKT phosphorylation inhibitory activity in MCP-1 stimulated THP-1 cells (sandwich ELISA); type: cell-based, Human; conditions: Homo sapiens, compound at 1 μmol/L, MCP-1 stimulation, read-out: AKT phosphorylation inhibition ratio
Procedure: (1) The AKT phosphorylation inhibitory activity of a compound was evaluated according to the following procedure. (2) Human monocyte-like cell line THP-1 was washed with RPMI-1640 media, incubated in the presence of 5% CO2 at 37° C. for 3 hours, washed with Hank's balanced salt solution (HBSS), adjusted to a cell concentration of 6.7×10^6/mL, and then used in an experiment. (3) 30 μL of the cell suspension and 60 μL of each compound solution containing 0.2% DMSO/HBSS were mixed and then preincubated at 37° C. for 5 minutes. 30 μL of HBSS containing 1.2 μg/mL of MCP-1 was added thereto and then incubated for 60 seconds at 37° C. (4) 30 μL of a cell lysate (the final concentrations: 20 mmol/L Tris-HCl (pH 7.5), 150 mmol/L NaCl, 1 mmol/L EDTA, 1 mmol/L EDTA, 1% Triton X-100, 2.5 mmol/L sodium pyrophosphate, 1 mmol/L β-glycerophosphate, 1 mmol/L Na3VO4, 1 μg/ml leupeptin, 50 nmol/L APMSF) was added thereto to lyse cells. (5) The amount of AKT phosphorylation in the cell solution was measured by sandwich ELISA method using anti-Phospho-Akt (Ser473) antibody and anti-AKT1 antibody. (6) Anti-Phospho-Akt (Ser473) antibodies or anti-AKT1 antibodies were immobilized onto the solid phase of a micro well plate. The prepared cell lysate was added to the micro well plate, incubated, and then washed with ELISA wash solution. (7) An anti-AKT1 antibody or anti-Phospho-Akt (Ser473) antibody, which forms a counterpart to an antibody immobilized on the solid phase, was added thereto, incubated, washed similarly, and then reacted with an HRP-labeled anti-mouse IgG antibody. (8) After incubating for 30 minutes and then washing similarly, 100 μL of TMB (3,3′,5,5″-tetramethylbenzidine) was added thereto, followed by reacting for 30 minutes. (9) 100 μL of stop solution was added to quench the color reaction, and then the absorbance at 450 nm was measured. (10) The amount of AKT phosphorylation in a sample in the absence of a compound was defined as 100% activity, and the amount of AKT phosphorylation in a sample in the absence of MCP-1 was defined as 0% activity to calculate an inhibition ratio of each compound. The measurement was performed for a 1 μmol/L solution of each compound.

CYP3A4 = target: T2, CYP3A4 (Homo sapiens, UniProt P08684); assay: CYP3A4 fluorescence MBI test; type: in vitro ADME; conditions: difference in IC50 with 0 or 30 minutes pre-reaction; CYP3A4 expressed in E. coli, substrate 7-BFC
T2 construct: host or cells: E. coli
T2 sequence (P08684 whole entry): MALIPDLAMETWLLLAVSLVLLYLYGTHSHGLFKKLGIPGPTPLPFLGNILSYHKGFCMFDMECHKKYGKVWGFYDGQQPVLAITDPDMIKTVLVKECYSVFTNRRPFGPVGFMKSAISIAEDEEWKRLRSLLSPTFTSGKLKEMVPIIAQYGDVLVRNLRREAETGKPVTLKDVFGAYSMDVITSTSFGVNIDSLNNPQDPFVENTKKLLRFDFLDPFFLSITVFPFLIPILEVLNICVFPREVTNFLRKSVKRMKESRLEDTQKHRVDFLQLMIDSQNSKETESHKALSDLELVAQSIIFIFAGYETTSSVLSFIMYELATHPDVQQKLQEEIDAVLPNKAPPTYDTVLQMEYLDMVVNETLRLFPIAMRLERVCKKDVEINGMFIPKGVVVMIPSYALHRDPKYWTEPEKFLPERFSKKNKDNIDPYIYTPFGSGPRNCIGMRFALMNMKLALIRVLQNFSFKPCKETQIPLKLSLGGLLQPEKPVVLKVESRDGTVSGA
Procedure: The CYP3A4 fluorescence MBI test is a test to examine the enhancement of CYP3A4 inhibition of a compound by a metabolic reaction. The test was performed using as an index, a reaction to produce a metabolite 7-hydroxytrifluoromethylcoumarin (HFC) which emits fluorescence, in which CYP3A4 expressed in E. coli was used as an enzyme and 7-benzyloxytrifluoromethylcoumarin (7-BFC) is debenzylated by CYP3A4 enzyme.
The reaction conditions are as follows: substrate: 5.6 μmol/L 7-BFC; pre-reaction time; 0 or 30 minutes; reaction time: 15 minutes; reaction temperature: 25° C. (room temperature); content of CYP3A4 (an enzyme expressed in E. coli): […] at the time of a pre-reaction and […] (when diluted 10 times) at the time of a reaction; the concentrations of a test drug: 0.625, 1.25, 2.5, 5, 10, and 20 μmol/L (6 points).
In a 96-well plate, an enzyme solution and a test drug solution were added as a pre-reaction solution into K-Pi buffer solution (pH 7.4) in the aforementioned ratio. A portion thereof was transferred to another 96-well plate to be diluted ten times with a substrate and a K-Pi buffer solution. A coenzyme, NADPH, was then added to start a reaction, which is the index (this is without a pre-reaction). After reacting for a predetermined time, 4:1 of acetonitrile: 0.5 mol/L Tris (trishydroxyaminomethane) was added to quench the reaction. To the remaining pre-reaction solution, NADPH was added to start a pre-reaction (this is with a pre-reaction). After pre-reacting for a predetermined time, a portion thereof was transferred to another plate to be diluted ten times with a substrate and K-Pi buffer solution, and thereby the index reaction is started. After reacting for a predetermined time, 4:1 of acetonitrile:0.5 mol/L Tris (trishydroxyaminomethane) was added to quench the reaction. For each plate in which the index reaction was carried out, the fluorescence value of a metabolite 7-HFC was measured with a fluorescent plate reader (Ex=420 nm, Em=535 nm).
The case wherein only DMSO (a solvent which dissolved a drug) was added to a reaction system was defined as a control (100%). When a test drug solution was added, the remaining activity (%) at each concentration was calculated, and then IC50 was calculated with a concentration and an inhibition ratio by an inverse estimation using a logistic model. When the difference in IC50 value is 5 μmol/L or more, the compound is shown as (+). When 3 μmol/L or less, the compound is shown as (−).

[2] = Metabolic stability test (pooled human liver microsome); type: in vitro ADME; conditions: percentage of test compound remained after 30 minutes, pooled human liver microsome 0.5 mg protein/mL, 1 mmol/L NADPH, 37° C., compound 0.5 μM
Outline: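 Pooled human liver microsomes (0.5 mg protein/mL) incubated with compound and 1 mmol/L NADPH at 37° C. in pH 7.4 Tris buffer for 0 or 30 min. Parent quantified by LC/MS/MS after methanol/acetonitrile quench; value is % remaining at 30 min versus 0 min.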

hERG channel (IKr) = target: T3, hERG channel (IKr) (Homo sapiens, UniProt Q12809); assay: hERG test (whole-cell patch-clamp, IKr in HEK293 cells); type: cell-based; conditions: human, HEK293 cells expressing hERG channel, pH 7.4, inhibition of maximum tail current (IKr), compound 1 μM
T3 construct: expressed in transfected cells; host or cells: HEK293
T3 sequence (Q12809 whole entry): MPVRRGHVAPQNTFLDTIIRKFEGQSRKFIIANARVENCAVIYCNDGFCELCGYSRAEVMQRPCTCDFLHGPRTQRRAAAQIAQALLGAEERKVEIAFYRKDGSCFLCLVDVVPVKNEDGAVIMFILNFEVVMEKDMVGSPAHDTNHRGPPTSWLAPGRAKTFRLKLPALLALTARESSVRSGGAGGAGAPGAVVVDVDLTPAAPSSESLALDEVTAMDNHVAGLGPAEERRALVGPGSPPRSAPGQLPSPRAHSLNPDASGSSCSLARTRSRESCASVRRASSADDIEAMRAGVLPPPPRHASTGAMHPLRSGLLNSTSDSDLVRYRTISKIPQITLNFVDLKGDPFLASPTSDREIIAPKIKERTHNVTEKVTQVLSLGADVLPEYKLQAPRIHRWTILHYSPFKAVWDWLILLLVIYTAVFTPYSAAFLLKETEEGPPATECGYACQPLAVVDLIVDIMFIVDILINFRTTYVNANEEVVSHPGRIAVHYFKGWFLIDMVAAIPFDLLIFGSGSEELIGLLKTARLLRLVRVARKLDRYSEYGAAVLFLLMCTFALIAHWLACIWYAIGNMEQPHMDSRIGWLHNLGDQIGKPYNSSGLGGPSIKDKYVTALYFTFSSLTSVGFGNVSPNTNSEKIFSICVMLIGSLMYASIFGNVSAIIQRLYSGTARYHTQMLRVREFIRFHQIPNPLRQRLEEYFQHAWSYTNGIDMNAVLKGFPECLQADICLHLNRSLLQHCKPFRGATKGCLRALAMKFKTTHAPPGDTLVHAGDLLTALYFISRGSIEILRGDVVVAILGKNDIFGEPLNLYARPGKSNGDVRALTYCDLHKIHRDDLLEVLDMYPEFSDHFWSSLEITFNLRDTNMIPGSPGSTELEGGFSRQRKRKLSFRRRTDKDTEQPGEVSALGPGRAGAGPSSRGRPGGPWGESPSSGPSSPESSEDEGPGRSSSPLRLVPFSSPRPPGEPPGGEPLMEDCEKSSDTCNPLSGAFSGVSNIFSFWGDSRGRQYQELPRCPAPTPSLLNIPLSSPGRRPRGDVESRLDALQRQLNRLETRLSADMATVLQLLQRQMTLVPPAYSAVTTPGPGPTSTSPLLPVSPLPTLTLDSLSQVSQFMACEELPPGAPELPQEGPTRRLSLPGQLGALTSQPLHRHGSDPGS
From the text: For the purpose of risk evaluation of QT interval extension of electrocardiogram, the activity on delayed rectification K^+ current (IKr), which plays an important role in a cardiac ventricle repolarization process, was examined using the HEK293 cell that was made to express human ether-a-go-go related gene (hERG) channel.
Using an automatic patch-clamp system (PatchXpress 7000A, Axon Instruments Inc.), by a whole-cell patch-clamp method, after the cell was maintained at a membrane potential of −80 mV, IKr induced upon applying depolarizing stimulation of +50 mV for 2 seconds and further applying repolarizing stimulation of −50 mV for 2 seconds was recorded. After generated electric current became stable, a test substance dissolved at an intended concentration in extracellular fluid (137 mmol/L NaCl, 4 mmol/L KCl, 1.8 mmol/L CaCl2.2H2O, 1 mmol/L MgCl2.6H2O, 10 mmol/L glucose, 10 mmol/L HEPES (4-(2-hydroxyethyl)-1-piperazineethanesulfonic acid), pH=7.4) was applied to the cell for 10 minutes under room temperature condition. From the obtained IKr, the absolute value of the maximum tail current was measured using analysis software (DataXpress ver. 1, Molecular Devices Corporation) and the value of the electric current in a maintained membrane potential as baseline. Moreover, an inhibition ratio for the maximum tail current prior to the application of the test substance was calculated and then compared with a group of media-application (0.1% dimethylsulfoxide solution) to evaluate influence of the test substance on IKr.

PI3Kγ [3] = target: T1, PI3Kγ; assay: PI3Kγ inhibitory activity (Ki value); type: biochemical; conditions: read-out: PI3Kγ Ki value
Procedure: The PI3Kγ inhibitory activity (Ki value) of a compound was evaluated according to the following procedure:
5 μL of a compound solution containing 10% DMSO and […] of a compound was changed to 5 μL of a compound solution containing 10% DMSO and either 200, 64, 20, 6.4, 2, 0.64, or 0.20 μmol/L of the compound (optionally, this is diluted to a lower concentration). Using a method similar to the method for measuring PI3Kγ inhibitory activity, inhibition ratios of PI3Kγ were measured in the presence of the compound at 50, 16, 5, 1.6, 0.5, 0.16, and 0.05 μmol/L (optionally, a lower concentration). Then an IC50 value was calculated by a logistic approximation method or the linear regression method using two concentrations that cross 50% inhibition. Separately, the ATP concentration in the reaction solution (40 μmol/L ATP, 10 mmol/L MgCl2, 5 mmol/L DTT) at the time of the start of a reaction in the absence of the compound was changed to 80, 40, 20, 10, 5, 2.5, 1.25, or 0.625 μmol/L. Then, HTRF ratios were measured by a similar method. The value obtained by subtracting the HTRF ratio at each ATP concentration from the HTRF ratio in the absence of PI-3 kinase y was defined as the value obtained by multiplying reaction rate (v) at each ATP concentration with a constant. The Michaelis-Menten constant Km was then calculated by the Lineweaver-Burk plot method. The Ki value of a compound was calculated by the following formula wherein “μM” denotes “μmol/L.”
Ki value ═IC50 value/(1+test ATP concentration (μM)/Km (μM))

SMILES: COc1cc(N2CCc3nc(NC(=O)Nc4ccccc4C(=O)NC(C)C(F)(F)F)sc3C2)nc(OC)n1 (centres unmarked) [Compound I-136]
inhibition at 10 µM (PI3Kγ [1]): ≥ 95%
inhibition at 1 µM (AKT phosphorylation): 84%

SMILES: [2H]C([2H])([2H])[C@@H](CO)NC(=O)c1ccccc1NC(=O)Nc1nc2c(s1)CN(c1cc(OC)nc(OC)n1)CC2 [Compound I-154]
hLMS_ox(at 0.5 μM) % [2]: 98.7%
inhibition at 10 µM (PI3Kγ [1]): ≥ 95%
inhibition at 1 µM (AKT phosphorylation): ≥ 95%

SMILES: COc1cc(N2CCc3nc(NC(=O)Nc4ccccc4C(=O)NC4CCCOC4)sc3C2)nc(OC)n1 (centres unmarked) [Compound I-160]
inhibition at 10 µM (PI3Kγ [1]): ≥ 95%
inhibition at 1 µM (AKT phosphorylation): ≥ 95%

SMILES: COc1cc(N2CCc3nc(NC(=O)Nc4ccccc4C(=O)NC4CCCCC4O)sc3C2)nc(OC)n1 (centres unmarked) [Compound I-161]
inhibition at 10 µM (PI3Kγ [1]): ≥ 95%
inhibition at 10 min, 1 µM (hERG channel (IKr)): 6.1%
inhibition at 1 µM (AKT phosphorylation): 93%

SMILES: COC(=O)[C@H](CO)NC(=O)c1nn(C)cc1NC(=O)Nc1nc2c(s1)CN(c1cc(OC)nc(OC)n1)CC2 [Compound I-167]
inhibition at 10 µM (PI3Kγ [1]): ≥ 95%
inhibition at 1 µM (AKT phosphorylation): ≥ 95%

SMILES: COc1cc(N2CCc3nc(NC(=O)Nc4ccccc4C(=O)NN4CCOCC4)sc3C2)nc(OC)n1 [Compound I-193]
hLMS_ox(at 0.5 μM) % [2]: 91.2%
inhibition at 10 µM (PI3Kγ [1]): 92%
inhibition at 1 µM (AKT phosphorylation): 81%

SMILES: CS(=O)(=O)c1cncc(N2CCc3nc(NC(=O)Nc4ccccc4C(=O)NCC#N)sc3C2)c1 [Compound I-210]
MBI (CYP3A4): (−) (When 3 μmol/L or less, the compound is shown as (−))
inhibition at 10 µM (PI3Kγ [1]): 91%
inhibition at 1 µM (AKT phosphorylation): 93%

SMILES: COc1cncc(-c2cc(NC(=O)Nc3ccccc3OCCC(C)C)nn2C)c1 [Compound I-221]
Ki (PI3Kγ [3]): 680 nM
inhibition at 10 µM (PI3Kγ [1]): ≥ 95%

Now from value to compound, other results behind:

inhibition at 10 µM (PI3Kγ [1]): 93%
SMILES: COc1cc(N2CCc3nc(NC(=O)Nc4ccccc4C(=O)NC(C)(C)C)sc3C2)nc(OC)n1 [Compound I-7]
inhibition at 1 µM (AKT phosphorylation): 77.6%

inhibition at 10 µM (PI3Kγ [1]): ≥ 95%
SMILES: COc1cc(N2CCc3nc(NC(=O)Nc4cnccc4OCCC(C)C)sc3C2)nc(OC)n1 [Compound I-97]
MBI (CYP3A4): (−) (When 3 μmol/L or less, the compound is shown as (−))
inhibition at 1 µM (AKT phosphorylation): 80.4%

hLMS_ox(at 0.5 μM) % [2]: 88.4%
inhibition at 10 µM (PI3Kγ [1]): ≥ 95%
SMILES: COc1cc(N2CCc3nc(NC(=O)Nc4ccccc4C(=O)NC4CCCC4O)sc3C2)nc(OC)n1 (centres unmarked) [Compound I-134]
inhibition at 10 min, 1 µM (hERG channel (IKr)): 1.7%
inhibition at 1 µM (AKT phosphorylation): 93%

hLMS_ox(at 0.5 μM) % [2]: 83%
inhibition at 10 µM (PI3Kγ [1]): ≥ 95%
SMILES: [2H]C([2H])([2H])C([2H])(NC(=O)c1ccccc1NC(=O)Nc1nc2c(s1)CN(c1cc(OC)nc(OC)n1)CC2)C([2H])([2H])[2H] [Compound I-153]
MBI (CYP3A4): (−) (When 3 μmol/L or less, the compound is shown as (−))
inhibition at 1 µM (AKT phosphorylation): ≥ 95%

inhibition at 10 µM (PI3Kγ [1]): 80%
SMILES: COc1cc(N2CCc3nc(NC(=O)Nc4cn(C)nc4C(=O)NC4CCOC4)sc3C2)nc(OC)n1 (centres unmarked) [Compound I-156]
inhibition at 10 min, 1 µM (hERG channel (IKr)): 2.7%
inhibition at 1 µM (AKT phosphorylation): ≥ 95%

inhibition at 10 µM (PI3Kγ [1]): ≥ 95%
SMILES: CC(C)NC(=O)c1ccccc1NC(=O)Nc1nc2c(s1)CN(c1cncc(S(C)(=O)=O)c1)CC2 [Compound I-166]
inhibition at 10 min, 1 µM (hERG channel (IKr)): 1.8%
inhibition at 1 µM (AKT phosphorylation): 76%

Ki (PI3Kγ [3]): 480 nM
inhibition at 10 µM (PI3Kγ [1]): 94%
SMILES: Cc1nc(NC(=O)Nc2ccccc2OCCC(C)C)sc1-c1csc(S(=O)(=O)N(C)CCN(C)C)c1 [Compound I-192]

inhibition at 10 µM (PI3Kγ [1]): ≥ 95%
SMILES: CC(C)NC(=O)c1nn(C)cc1NC(=O)Nc1nc2c(s1)CN(c1cncc(C#N)c1)CC2 [Compound I-205]
inhibition at 10 min, 1 µM (hERG channel (IKr)): 0.2%
inhibition at 1 µM (AKT phosphorylation): 90%
